Laboratory results reported in patent publication US12448388B2, “PRMT5 inhibitors and uses thereof” (Gilead Sciences, Inc., priority 2023, dated 2025).
Values after ≈ are worked out from the molar mass of the structure shown. Read-outs that look alike come from different tables or passages of the source.

How the values were obtained:
[1] = MDR1/BCRP assay: permeability in cPgp-KO-MDCK-WT cells; type: in vitro ADME; settings: dog, pH 7.4
Protocol: The cells were maintained in an incubator at 37° C., 90% humidity, and 5% CO2 until reaching confluence over 5 days in 96-well transwell plates. Experiments were conducted using an HBSS donor buffer (Invitrogen) containing 10 mM HEPES and 15 mM glucose, adjusted to pH 7.4. The receiver well contained HBSS buffer supplemented with 1% BSA, 10 mM HEPES, and 15 mM glucose, and the pH was adjusted to 7.4. TEER values were measured to assess membrane integrity after an initial equilibration with BSA-free transport buffer for 15 minutes. The experiment was started by adding dosing solutions containing test compounds at 1 μM. Cells were dosed on the apical (A) side or basolateral (B) side at 100 μl and 200 μl, respectively, to determine forward (A to B) and reverse (B to A) permeability. At the 2-hour time point, 50 μl samples were collected from the receiver compartment. Each compound was tested in 2 separate replicate wells for each condition. All samples were immediately collected into plates, and 50 μL of acetonitrile was added. Subsequently, 350 μl of 30:70 methanol: acetonitrile containing internal standard was added to precipitate proteins and stabilize the test compounds. To test for non-specific binding and compound instability, the total amount of the drug was quantified at the end of the experiment and compared to the material present in the original dosing solution as a percentage of the recovery. All samples were analyzed by LC-MS/MS using electrospray ionization.
The apparent permeability, Papp, and % recovery were calculated as follows: […]

[2] = Pharmacokinetics in cassette in male Sprague-Dawley rats for Kp measurement; type: in vivo; settings: 1 mg/kg, intravenous
Protocol: E.1 Test Animal: Male Sprague-Dawley Rats (225-300 g) with Indwelling Bilateral Jugular Vain Cannula (JVC/JVC) or Single Jugular Vein Cannula (JVC)
E.2 Pharmaceutical Formulation and Administration
Test compound was dissolved in the vehicle of 10% DMSO, 10% ethanol, 40% polyethylene glycol 300, and 40% propylene glycol to get 1 mg/mL test compound solution. The compound was administered by intravenous administration at a dose of 1 mL/kg. Fasting was not required.
• Anticoagulant: K2EDTA • Volume: approximately 225 μL blood at each bleed • Jugula vein via syringe and needle or another method (non-terminal samples) or exsanguination (cardiac puncture) under isoflurane (or CO2 inhalation if isoflurane is unavailable) anesthesia (terminal time points). Blood samples were collected into K2EDTA tubes • Tissue collection and processing: following the terminal blood collection, the brain and CSF were collected from each animal.

[3] = PBS solubility (kinetic solubility from DMSO stocks); type: physicochemical; settings: 22 °C, aqueous buffer, kinetic from dmso stock; 1x PBS pH 7.4, 1.0% DMSO, 24-hour incubation at ambient temperature
Protocol: Buffer Preparation: 1×PBS, 7.4: Phosphate Buffered Saline solution 10×, PBS (Fisher Bioreagent, part number BP399-500) 50 mL was added to approximately 450 mL HPLC grade H2O. The volume of the solution was then adjusted to 500 mL for a total dilution factor of 1:10 and a final PBS concentration of 1×. The pH of the final solution was measured and found to be 7.4.
The final DMSO Concentration is 1.0% and maximum theoretical compound concentration is 100 μM (assuming stock concentration of 10 mM). The filter plate was sealed. Following 24-hour incubation at ambient temperature (20.8-24.0° C.), the samples were vacuum filtered, and the filtrates were collected in a 96 well polypropylene plate for analysis. The collection plate was sealed for analysis. Filtrates were injected into the nitrogen detector for quantification on Analiza's Automated Discovery Workstation. The results are reported here in both μM and μg/mL.
Calculation of Results: The equimolar nitrogen response of the detector is calibrated using standards which span the dynamic range of the instrument from 0.08 to 4500 μg/ml nitrogen. The filtrates were quantified with respect to this calibration curve. The calculated solubility values are corrected for background nitrogen present in the DMSO, and the media used to prepare the samples. All reported values for compounds containing adjacent nitrogen atoms in a ring structure should be increased by ˜25%. […] The solubility results presented assume that the samples were free of nitrogen containing impurities and are stable under the assay conditions.

[4] = Cell viability assay (CellTiter-Glo, 7 days), HCT116 WT; type: cell-based; settings: human, HCT116 WT cells, 7 days of treatment, CTG
Protocol: Control compounds were analyzed in parallel each time for quality control. In Brief, on Day -1, a serial dilution of stock compounds in DMSO was performed using BioMek liquid handlers and dispensed using Echo acoustic dispenser into 384 well plates. Both tool compounds and sample compounds were spotted in the same plate for a dose response of PRMT5 inhibitors. Compound plates were stored as frozen until the cells were ready for seeding. […] After equilibrating the plate in room temperature, the cells were incubated for 7 days inside the sealed incubator set at 37° C. with 90% humidity and 5% CO2. On Day 7, the viability of cells was measured using a CTG assay kit (CellTitre-Glo;Promega cat no. G7573). Shortly, 40 μl per well of luminescent cell viability assay reagent were dispensed using EL460 liquid dispenser 5 μl cassette. CTG luminescence signal was measured using an EnVision plate reader (PerkinElmer) in accordance with manufacturer's instruction. […] Selectivity with * is artificially high due to limited solubility of the compound hampering accurate measurement of WT CC50.

[5] = test system: HCT116 MTAP-deleted cell lines; experiment: Cell viability assay (CellTiter-Glo, 7 days), HCT116 MTAP-deleted; type: cell-based; settings: for Selectivity: HCT116 WT CC50 versus HCT116 MTAP^del CC50; for plasma-adjusted CC50 (paCC50): paCC50 = CC50-HCT116-MTAP^del * (% free CCM/% free human plasma); for CC50: Homo sapiens, HCT116 MTAP-deleted
In short: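 Dose-response, PRMT5 inhibitors from DMSO serial dilution, pre-spotted; cells seeded onto compound plates. 7 d, 37 °C/5% CO2/90% RH. Readout: CTG luminescence → CC50.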

[6] = Hepatocyte stability assay, human; type: in vitro ADME; settings: human hepatocytes, 1 μM
Protocol: BioreclamationIVT (Baltimore, MD) provided the cryopreserved hepatocytes, hepatocyte thawing (HT) medium, and Krebs-Henseleit buffer (KHB) medium. The stock solution concentration was 1 M in DMSO and was then diluted further in acetonitrile/water (1:1 v/v). All other chemicals were purchased from Sigma-Aldrich (St. Louis, MO) or Thermo Fisher Scientific (Waltham, MA).
The quench solution used to stop reactions in the hepatocyte incubations was comprised of 100% (v/v) acetonitrile. Internal Standard/Quench (IS/Q) solution used to stop reactions with the positive control also contained 200 nM Labetalol.
Metabolic Stability in Cryopreserved Hepatocytes: Test compounds, or the positive control metabolic substrate, was incubated in suspensions of cryopreserved hepatocytes at a final concentration of 1 μM. Vials containing cryopreserved hepatocytes were removed from liquid nitrogen and immediately immersed in a 37° C. water bath. The vials were swirled gently until the contents had thawed. They were then immediately emptied into 48 mL of pre-warmed thawing medium in a 50 mL conical tube. Cells remaining in the vial were re-suspended with 1.0 mL of pre-warmed thawing medium and added to the conical tube. The tube was capped and then gently inverted several times to re-suspend the hepatocytes. The cell suspension was centrifuged at 500×g for 10 minutes at room temperature and the supernatant discarded. The cell pellet was loosened by gently swirling the centrifuge tube. Non-supplemented KHB medium was added to obtain the appropriate target cell density. The viabilities of all cell preparations were ≥85%, assessed by Trypan blue dye exclusion.
For incubations, aliquots of hepatocyte suspension (250 μL containing a cell concentration of 2×10^6 cells/mL) were added to 250 μL of 2 μM substrate (test compound or positive control) in supplemented KHB in duplicate wells in a 24-well plate. Final concentration in the incubations were 1×10^6 cells/mL and 1 μM substrate. A cell-free control incubation (KHB only) was also included. The incubations were carried out with gentle shaking in a 37° C. incubator under a humid atmosphere of 95% air/5% CO2 (v/v). Aliquots (100 μL) were removed after 0, 1, 3, and 6 hours and added to 200 μL quenching solution. The samples were then placed on a shaker for 10 min followed by centrifugation at 3000×g for 20 min. The supernatant was transferred to a new plate and diluted with 100 μL of water to reduce the organic content and then placed on a shaker for 10 mins. Samples were injected and analyzed with methods described below.
Liquid Chromatography: Quantification of positive control and test compound was performed by analyte/internal standard peak area ratios (PAR) measured on a Thermo Scientific™ Q Exactive™ Hybrid Quadrupole-Orbitrap Mass Spectrometer MS/MS with an electrospray interface operating in positive ion mode. The mass spectrometer was coupled to a Dionex Ultimate® 3000 HPLC system. Samples (10 μL aliquots) were injected with a Leap Technologies HTC PAL autosampler. For positive control, the column used was a Thermo Scientific™ Hypersil GOLD™ HPLC column ([…], 50×2.1 mm). Mobile phase A consisted of 95% (v/v) water, 5% (v/v) acetonitrile, and contained 0.1% (v/v) formic acid (FA). Mobile phase B consisted of 95% (v/v) acetonitrile, 5% (v/v) water, and contained 0.1% (v/v) FA. Elution was achieved, at a flow rate of 0.5 mL/min, by a series of linear gradients: initial condition was 5% B at 0 min, isocratic for 20 seconds; then linear gradient to 95% B over 90 seconds, followed by isocratic for 60 seconds at 95% B, and re-equilibrated to initial conditions over 70 seconds.
Metabolic stabilities of positive control and test compound were determined by measuring the rates of disappearance of the parent with time by determining the % of parent remaining at time t (Ct) {Obach 1997}.
Data (% of parent remaining) were plotted on a semi-log scale and fitted using an exponential fit: […]

[7] = brain Kp = [brain]/[plasma], rat, read-out: Rat brain Kp
[8] = brain Kpu,u = Kp * (plasma free/rat brain free), read-out: Rat brain Kpu,u
[9] = HCT-116, 168 h, 7 days of treatment, CTG, read-out: CC50-HCT116-MTAP^del
[10] = HCT-116, cell viability assay, class symbols, read-out: CC50

Compound | Papp A→B at 2 h, 1 µM [1] | Kp [2, 7] | Kp [2, 8] | solubility at 24 h [3] | CC50 at 7 days [4] | Selectivity [5] | plasma-adjusted CC50 (paCC50) ([5]; HCT-116) | CC50 [5, 9] | CC50 [5, 10] | Human Predicted Hepatocyte CL [6] | CC50 ([5]; HCT-116, cell viability, class symbols, read-out: CC50)
Cc1ncn2c1c(N)nc1ccc(C(=O)N3CCC[C@@H]4Oc5cc(C(F)(F)F)ccc5[C@@H]43)cc12 [Fg-31, (4-amino-3-methylimidazo[1,5-a]quinoxalin-8-yl)((4aS,9bS)-7-(trifluoromethyl)-3,4,4a,9b-tetrahydrobenzofuro[3,2-b]pyridin-1(2H)-yl)methanone] | 10.3 ×10⁻⁶ cm/s | 0.76 | 0.13 | 1.6 µM (≈ 0.748 µg/mL) | 2140 nM | 113 | 312 nM | 19 nM | < 100 nM | – | –
Nc1nc2ccc(C(=O)N3CCC[C@@H]4Oc5cc(OC(F)(F)F)cc(F)c5[C@@H]43)cc2n2cncc12 [Ff-697, (4-aminoimidazo[1,5-a]quinoxalin-8-yl)((4aS,9bS)-9-fluoro-7-(trifluoromethoxy)-3,4,4a,9b-tetrahydrobenzofuro[3,2-b]pyridin-1(2H)-yl)methanone] | – | – | – | 2.5 µM (≈ 1.22 µg/mL) | 4990 nM | 199 | 289 nM | 25 nM | – | 6.7 mL/min/kg | –
Nc1nc2cc(Cl)c(C(=O)N3CCC[C@@H]4Oc5cc(C(F)(F)F)ccc5[C@@H]43)cc2n2cncc12 [Ff-587, (4-amino-7-chloroimidazo[1,5-a]quinoxalin-8-yl)((4aS,9bS)-7-(trifluoromethyl)-3,4,4a,9b-tetrahydrobenzofuro[3,2-b]pyridin-1(2H)-yl)methanone] | 7.4 ×10⁻⁶ cm/s | 0.52 | 0.06 | < 1 µM | 274 nM | 55 | 329 nM | 5 nM | < 100 nM | – | –
Cc1ncn2c1c(N)nc1cc(F)c(C(=O)N3CCC[C@@H]4Oc5cc(C(F)(F)F)ccc5[C@@H]43)cc12 [Ff-379, (4-amino-7-fluoro-3-methylimidazo[1,5-a]quinoxalin-8-yl)((4aS,9bS)-7-(trifluoromethyl)-3,4,4a,9b-tetrahydrobenzofuro[3,2-b]pyridin-1(2H)-yl)methanone] | 10 ×10⁻⁶ cm/s | – | – | < 1 µM | 730 nM | 56 | – | 13 nM | < 100 nM | – | –
C[C@@H]1C[C@@H]2Oc3cc(C(F)(F)F)ccc3[C@@H]2N(C(=O)c2cc3c(cn2)nc(N)c2cncn23)C1 [Ff-252, (4-aminoimidazo[1,5-a]pyrido[3,4-e]pyrazin-8-yl)((3R,4aS,9bS)-3-methyl-7-(trifluoromethyl)-3,4,4a,9b-tetrahydrobenzofuro[3,2-b]pyridin-1(2H)-yl)methanone] | 13.6 ×10⁻⁶ cm/s | – | – | < 1 µM | 534 nM | 41 | 269 nM | 13 nM | – | – | < 100 nM
